Series [1] has as its target Proto-oncogene tyrosine-protein kinase Src (Homo sapiens, UniProt P12931).
Description: Inhibition of Src (unknown origin) using [gamma-33P]ATP after 30 mins by radiometric assay
Series [2] can be described thus: Cytotoxicity against human CXF 1103L cells after 4 days by propidium iodide staining. The following applies: 96 h.
A short description of series [3]: Cytotoxicity against human LXFA 983L cells after 4 days by propidium iodide staining. The following applies: 96 h.
In series [4] the target is Tyrosine-protein kinase Yes (Homo sapiens, UniProt P07947). The series can be described thus: Inhibition of human Yes1 using [gamma-33P]ATP assessed as residual activity at 3 uM after 30 mins by radiometric assay.
Series [5] has as its target T1, Ephrin type-B receptor 4 (Homo sapiens, UniProt P54760).
T1 sequence (P54760 whole entry): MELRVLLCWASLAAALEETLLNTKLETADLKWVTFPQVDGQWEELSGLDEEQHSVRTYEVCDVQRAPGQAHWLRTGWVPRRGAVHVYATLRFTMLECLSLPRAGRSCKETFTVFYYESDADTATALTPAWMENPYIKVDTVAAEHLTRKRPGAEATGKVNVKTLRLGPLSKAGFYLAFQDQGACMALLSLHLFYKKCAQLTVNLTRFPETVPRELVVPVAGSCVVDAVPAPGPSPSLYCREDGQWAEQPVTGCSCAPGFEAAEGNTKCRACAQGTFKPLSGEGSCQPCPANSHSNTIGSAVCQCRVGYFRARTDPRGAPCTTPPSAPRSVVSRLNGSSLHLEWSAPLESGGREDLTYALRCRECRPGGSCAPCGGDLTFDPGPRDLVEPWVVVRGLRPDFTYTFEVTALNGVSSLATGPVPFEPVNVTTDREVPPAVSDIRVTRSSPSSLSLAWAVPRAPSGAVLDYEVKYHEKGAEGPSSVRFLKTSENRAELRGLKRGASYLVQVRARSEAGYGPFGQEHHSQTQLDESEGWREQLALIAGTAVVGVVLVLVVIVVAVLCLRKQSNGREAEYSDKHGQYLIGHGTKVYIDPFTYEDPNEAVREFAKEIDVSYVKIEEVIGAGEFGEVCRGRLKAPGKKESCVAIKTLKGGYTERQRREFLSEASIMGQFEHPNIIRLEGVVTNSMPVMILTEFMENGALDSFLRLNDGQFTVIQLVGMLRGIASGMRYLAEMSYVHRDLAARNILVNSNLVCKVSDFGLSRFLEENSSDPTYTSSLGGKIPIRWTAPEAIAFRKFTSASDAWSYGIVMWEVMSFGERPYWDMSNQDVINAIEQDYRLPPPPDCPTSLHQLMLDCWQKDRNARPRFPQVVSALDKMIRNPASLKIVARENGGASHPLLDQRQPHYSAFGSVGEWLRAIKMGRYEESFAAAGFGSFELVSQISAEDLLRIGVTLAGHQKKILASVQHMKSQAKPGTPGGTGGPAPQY
Description: Inhibition of human myc-tagged full length EphB4 expressed in MEF cells assessed as inhibition of ephrinB2-Fc-induced autophosphorylation incubated for 90 mins prior to ephrinB2-Fc-induction measured after 2 hrs by sandwich ELISA

Series [6] is described as follows: Cytotoxicity against human GXF251L cells after 4 days by propidium iodide staining. To be noted: GXF 251L, 96 h.
Series [7] addresses Tyrosine-protein kinase CSK (Homo sapiens) (UniProt P41240). Put plainly: Inhibition of human CSK using [gamma-33P]ATP assessed as residual activity at 3 uM after 30 mins by radiometric assay.
The target of series [8] is Ephrin type-A receptor 4 (Homo sapiens) (UniProt P54764). The series can be described thus: Inhibition of human Eph-A4 using [gamma-33P]ATP assessed as residual activity at 3 uM after 30 mins by radiometric assay.
Series [9] addresses Tyrosine-protein kinase ABL1 (Homo sapiens, UniProt P00519).
Description: Inhibition of Abl (unknown origin) using [gamma-33P]ATP after 30 mins by radiometric assay
The nature of series [10]: Permeability from apical to basolateral side in human Caco2 cells assessed as compound recovery after 2 hrs by LC-MS/MS analysis. It counts as ADME, cell-based. The following applies: Caco-2, read-out: permeability.
In series [11] the target is Receptor-interacting serine/threonine-protein kinase 2 (Homo sapiens) (UniProt O43353). The series can be described thus: Inhibition of human RIPK2 using [gamma-33P]ATP assessed as residual activity at 3 uM after 30 mins by radiometric assay.
Series [12] in a line: in vitro. To be noted: human, Caco-2.
Description: Efflux ratio of apparent permeability from basolateral to apical side to apical to basolateral side in human Caco2 cells
Series [13] deals with T2, Ephrin type-B receptor 3 (Homo sapiens) (UniProt P54753).
T2 sequence (whole entry): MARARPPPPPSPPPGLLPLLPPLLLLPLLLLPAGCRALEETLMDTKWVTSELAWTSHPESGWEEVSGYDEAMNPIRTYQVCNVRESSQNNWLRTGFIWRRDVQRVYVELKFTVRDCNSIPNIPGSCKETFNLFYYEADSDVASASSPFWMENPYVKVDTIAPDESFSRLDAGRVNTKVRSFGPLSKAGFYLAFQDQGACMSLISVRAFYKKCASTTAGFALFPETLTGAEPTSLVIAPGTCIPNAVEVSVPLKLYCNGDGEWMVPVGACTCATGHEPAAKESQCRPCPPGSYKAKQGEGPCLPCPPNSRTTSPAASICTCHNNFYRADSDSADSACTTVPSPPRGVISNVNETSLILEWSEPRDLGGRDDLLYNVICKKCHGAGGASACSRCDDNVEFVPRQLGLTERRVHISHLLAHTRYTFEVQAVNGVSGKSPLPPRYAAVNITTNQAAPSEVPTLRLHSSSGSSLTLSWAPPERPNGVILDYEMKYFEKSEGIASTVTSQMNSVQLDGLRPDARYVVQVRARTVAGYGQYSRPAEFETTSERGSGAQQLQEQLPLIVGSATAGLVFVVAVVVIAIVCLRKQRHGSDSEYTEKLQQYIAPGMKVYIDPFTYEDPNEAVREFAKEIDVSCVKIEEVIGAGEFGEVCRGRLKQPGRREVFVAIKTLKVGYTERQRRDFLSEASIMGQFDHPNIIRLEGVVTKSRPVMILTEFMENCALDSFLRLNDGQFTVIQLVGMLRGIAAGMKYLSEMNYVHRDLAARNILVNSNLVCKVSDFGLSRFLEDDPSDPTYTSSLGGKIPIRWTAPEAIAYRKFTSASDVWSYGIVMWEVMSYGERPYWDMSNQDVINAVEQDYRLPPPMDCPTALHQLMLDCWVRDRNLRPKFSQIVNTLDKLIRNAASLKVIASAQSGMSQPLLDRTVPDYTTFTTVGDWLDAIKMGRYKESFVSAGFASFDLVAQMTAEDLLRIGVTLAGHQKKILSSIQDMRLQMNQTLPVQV
The series can be described thus: Inhibition of human Eph-B3 using [gamma-33P]ATP assessed as residual activity at 3 uM after 30 mins by radiometric assay.

Series [14] in a line: Cytotoxicity against human RXF 393NL cells after 4 days by propidium iodide staining. To be noted: 96 h.

Structures are written as SMILES.

Sequence of Proto-oncogene tyrosine-protein kinase Src (P12931 2-536 limits assumed): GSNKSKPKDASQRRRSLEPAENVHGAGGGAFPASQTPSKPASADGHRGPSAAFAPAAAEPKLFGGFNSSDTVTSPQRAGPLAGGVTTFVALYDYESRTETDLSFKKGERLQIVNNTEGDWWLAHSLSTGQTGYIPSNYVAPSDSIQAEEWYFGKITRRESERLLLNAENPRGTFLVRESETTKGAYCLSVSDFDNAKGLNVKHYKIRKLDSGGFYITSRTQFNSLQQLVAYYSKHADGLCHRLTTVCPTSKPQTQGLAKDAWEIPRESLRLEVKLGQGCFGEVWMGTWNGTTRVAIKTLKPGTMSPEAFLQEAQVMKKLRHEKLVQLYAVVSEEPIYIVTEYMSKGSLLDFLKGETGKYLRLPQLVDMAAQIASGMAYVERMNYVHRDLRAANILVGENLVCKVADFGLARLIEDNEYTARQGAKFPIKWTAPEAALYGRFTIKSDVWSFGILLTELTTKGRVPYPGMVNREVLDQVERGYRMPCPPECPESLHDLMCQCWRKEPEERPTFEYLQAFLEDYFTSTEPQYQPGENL
Sequence of Tyrosine-protein kinase Yes (P07947 2-543 limits assumed): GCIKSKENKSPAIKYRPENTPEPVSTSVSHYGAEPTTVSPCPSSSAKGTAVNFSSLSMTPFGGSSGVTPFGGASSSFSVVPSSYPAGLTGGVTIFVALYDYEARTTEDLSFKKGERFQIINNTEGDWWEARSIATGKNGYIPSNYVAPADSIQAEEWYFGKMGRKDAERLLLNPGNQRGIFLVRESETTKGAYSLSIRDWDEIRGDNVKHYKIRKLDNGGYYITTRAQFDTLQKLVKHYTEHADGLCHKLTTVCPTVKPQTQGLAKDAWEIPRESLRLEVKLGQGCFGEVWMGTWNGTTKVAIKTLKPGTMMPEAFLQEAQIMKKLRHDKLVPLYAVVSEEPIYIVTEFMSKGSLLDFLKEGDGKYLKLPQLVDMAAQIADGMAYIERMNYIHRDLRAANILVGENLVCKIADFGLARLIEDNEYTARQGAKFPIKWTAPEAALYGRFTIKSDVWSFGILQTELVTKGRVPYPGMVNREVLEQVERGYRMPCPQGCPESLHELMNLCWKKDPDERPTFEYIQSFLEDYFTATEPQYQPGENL
Sequence of Tyrosine-protein kinase ABL1 (P00519 whole entry): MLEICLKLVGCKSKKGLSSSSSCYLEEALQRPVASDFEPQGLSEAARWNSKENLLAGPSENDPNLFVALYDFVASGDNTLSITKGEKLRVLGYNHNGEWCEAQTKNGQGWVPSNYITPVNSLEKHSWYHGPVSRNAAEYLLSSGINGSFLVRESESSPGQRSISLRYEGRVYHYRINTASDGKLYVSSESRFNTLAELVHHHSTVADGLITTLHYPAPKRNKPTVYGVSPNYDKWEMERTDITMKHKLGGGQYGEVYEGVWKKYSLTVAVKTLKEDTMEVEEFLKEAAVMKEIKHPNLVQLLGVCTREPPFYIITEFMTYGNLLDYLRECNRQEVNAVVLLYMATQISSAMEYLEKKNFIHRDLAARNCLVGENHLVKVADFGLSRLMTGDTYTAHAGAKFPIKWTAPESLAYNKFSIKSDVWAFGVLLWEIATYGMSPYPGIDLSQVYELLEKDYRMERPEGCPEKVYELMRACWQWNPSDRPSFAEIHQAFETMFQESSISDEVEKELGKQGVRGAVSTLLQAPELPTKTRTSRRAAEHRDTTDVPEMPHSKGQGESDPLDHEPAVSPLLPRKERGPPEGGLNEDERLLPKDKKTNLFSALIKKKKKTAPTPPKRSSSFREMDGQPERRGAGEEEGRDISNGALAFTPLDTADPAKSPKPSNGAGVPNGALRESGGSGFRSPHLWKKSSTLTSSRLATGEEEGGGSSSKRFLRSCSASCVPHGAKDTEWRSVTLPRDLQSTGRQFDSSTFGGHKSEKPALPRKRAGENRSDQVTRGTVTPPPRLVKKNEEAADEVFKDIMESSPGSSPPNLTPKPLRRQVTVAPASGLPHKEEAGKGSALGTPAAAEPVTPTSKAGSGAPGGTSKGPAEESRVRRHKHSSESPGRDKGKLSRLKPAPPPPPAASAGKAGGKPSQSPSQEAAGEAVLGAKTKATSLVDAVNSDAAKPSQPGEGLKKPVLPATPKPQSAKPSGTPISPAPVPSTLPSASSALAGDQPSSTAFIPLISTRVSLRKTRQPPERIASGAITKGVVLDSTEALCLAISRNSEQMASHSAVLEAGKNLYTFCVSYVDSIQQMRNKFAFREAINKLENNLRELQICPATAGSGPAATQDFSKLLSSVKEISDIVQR
Sequence of Ephrin type-A receptor 4 (Homo sapiens) (P54764 whole entry): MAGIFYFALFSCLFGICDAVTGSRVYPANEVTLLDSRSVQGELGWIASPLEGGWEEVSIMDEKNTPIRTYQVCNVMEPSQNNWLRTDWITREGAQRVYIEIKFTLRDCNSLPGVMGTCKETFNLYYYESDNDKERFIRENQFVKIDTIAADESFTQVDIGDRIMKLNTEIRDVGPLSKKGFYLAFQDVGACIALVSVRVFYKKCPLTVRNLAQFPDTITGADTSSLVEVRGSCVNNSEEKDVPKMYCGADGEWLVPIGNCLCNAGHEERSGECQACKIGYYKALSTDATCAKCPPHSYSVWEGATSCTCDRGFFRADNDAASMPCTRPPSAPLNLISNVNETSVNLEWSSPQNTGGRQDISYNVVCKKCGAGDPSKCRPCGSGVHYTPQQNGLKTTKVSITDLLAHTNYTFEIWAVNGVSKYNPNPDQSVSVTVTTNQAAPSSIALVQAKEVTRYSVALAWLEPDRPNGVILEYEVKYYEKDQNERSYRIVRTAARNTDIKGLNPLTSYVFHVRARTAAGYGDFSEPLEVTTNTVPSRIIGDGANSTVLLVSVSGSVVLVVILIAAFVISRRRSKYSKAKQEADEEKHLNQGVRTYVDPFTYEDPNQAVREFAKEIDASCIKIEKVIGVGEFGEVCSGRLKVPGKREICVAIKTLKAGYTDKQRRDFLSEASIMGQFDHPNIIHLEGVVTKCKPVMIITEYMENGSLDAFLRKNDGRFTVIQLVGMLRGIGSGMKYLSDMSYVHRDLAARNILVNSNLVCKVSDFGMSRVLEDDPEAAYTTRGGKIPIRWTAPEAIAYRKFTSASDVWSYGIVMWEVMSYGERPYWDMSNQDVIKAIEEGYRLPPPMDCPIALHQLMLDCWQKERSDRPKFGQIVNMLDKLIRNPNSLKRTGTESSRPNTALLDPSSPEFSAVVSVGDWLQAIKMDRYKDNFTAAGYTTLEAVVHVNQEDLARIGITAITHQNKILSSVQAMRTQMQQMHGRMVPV
Sequence of Receptor-interacting serine/threonine-protein kinase 2 (Homo sapiens) (O43353 whole entry): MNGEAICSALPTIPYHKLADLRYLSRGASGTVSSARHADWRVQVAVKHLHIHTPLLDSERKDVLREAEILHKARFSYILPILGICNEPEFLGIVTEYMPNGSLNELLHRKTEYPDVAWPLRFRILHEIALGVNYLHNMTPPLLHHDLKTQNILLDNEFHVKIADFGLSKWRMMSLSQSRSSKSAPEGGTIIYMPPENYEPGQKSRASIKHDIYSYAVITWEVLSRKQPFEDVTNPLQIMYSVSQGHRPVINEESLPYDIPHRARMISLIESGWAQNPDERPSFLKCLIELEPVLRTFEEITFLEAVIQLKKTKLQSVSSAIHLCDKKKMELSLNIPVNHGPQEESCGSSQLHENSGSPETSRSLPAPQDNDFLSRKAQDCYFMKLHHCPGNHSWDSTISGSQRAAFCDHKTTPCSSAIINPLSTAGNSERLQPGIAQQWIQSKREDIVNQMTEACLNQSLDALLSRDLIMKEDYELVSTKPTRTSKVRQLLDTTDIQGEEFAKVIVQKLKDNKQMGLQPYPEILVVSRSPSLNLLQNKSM
Sequence of Tyrosine-protein kinase CSK (Homo sapiens) (P41240 2-450 limits assumed): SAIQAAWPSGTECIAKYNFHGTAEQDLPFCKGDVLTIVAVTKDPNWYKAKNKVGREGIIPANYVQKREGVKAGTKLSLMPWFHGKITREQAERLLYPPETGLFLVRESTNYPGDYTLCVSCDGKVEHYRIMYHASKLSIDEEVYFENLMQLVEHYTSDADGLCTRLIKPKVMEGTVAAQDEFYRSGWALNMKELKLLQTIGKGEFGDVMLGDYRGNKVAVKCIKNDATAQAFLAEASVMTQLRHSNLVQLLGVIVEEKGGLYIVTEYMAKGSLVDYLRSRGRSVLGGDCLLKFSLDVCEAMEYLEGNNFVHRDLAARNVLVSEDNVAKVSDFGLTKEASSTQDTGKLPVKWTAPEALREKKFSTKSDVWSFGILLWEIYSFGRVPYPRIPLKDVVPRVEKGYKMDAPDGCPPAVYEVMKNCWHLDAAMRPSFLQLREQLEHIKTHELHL

Usually IC50 stands for the concentration that gives 50% inhibition. Lower therefore signals greater potency. A word on the efflux ratio: it is the permeability from basolateral to apical divided by that in the opposite direction, in the common usage. Regarding `CCCCn1c(-c2ccccc2C)cn2c3c(=O)[nH]c(=O)n(C)c3nc12`, the IC50 was 0.071 µM in series [1]; 4.61 µM in series [2]; 5.45 µM in series [3]; 0.05 µM in [5]; 14.6 µM in [6]; 0.578 µM in series [9]. This compound showed an IC50 in series [14] of 7.6 µM. Besides, the Activity in [4] came to 14%; in [7], 57%; in [8], 5%; in [11], 12%; in [13] it was 13%. Also, the recovery at 2 h in series [10] is 85%. In series [12], the efflux ratio worked out at 0.7.

These data come from ChEMBL document CHEMBL2331203, “Optimization of inhibitors of the tyrosine kinase EphB4. 2. Cellular potency improvement and binding mode validation by X-ray crystallography” (J Med Chem, 2013).
